The source made the active and inactive calls.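 The calls were made as follows: active = IC50 at or below 20 µM; inactive = the rest.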
What follows are molecules tested against Fatty acid synthase (Homo sapiens) (UniProt P49327) (assay: inhibition of human FAS-TE enzyme activity – biochemical, kinetic fluorescence intensity, dose response, SAR follow-up (AID 652165)). Conditions: recombinant FAS-TE, OMFH fluorogenic substrate.
Sequence of Fatty acid synthase (Homo sapiens) (P49327 whole entry, looked up): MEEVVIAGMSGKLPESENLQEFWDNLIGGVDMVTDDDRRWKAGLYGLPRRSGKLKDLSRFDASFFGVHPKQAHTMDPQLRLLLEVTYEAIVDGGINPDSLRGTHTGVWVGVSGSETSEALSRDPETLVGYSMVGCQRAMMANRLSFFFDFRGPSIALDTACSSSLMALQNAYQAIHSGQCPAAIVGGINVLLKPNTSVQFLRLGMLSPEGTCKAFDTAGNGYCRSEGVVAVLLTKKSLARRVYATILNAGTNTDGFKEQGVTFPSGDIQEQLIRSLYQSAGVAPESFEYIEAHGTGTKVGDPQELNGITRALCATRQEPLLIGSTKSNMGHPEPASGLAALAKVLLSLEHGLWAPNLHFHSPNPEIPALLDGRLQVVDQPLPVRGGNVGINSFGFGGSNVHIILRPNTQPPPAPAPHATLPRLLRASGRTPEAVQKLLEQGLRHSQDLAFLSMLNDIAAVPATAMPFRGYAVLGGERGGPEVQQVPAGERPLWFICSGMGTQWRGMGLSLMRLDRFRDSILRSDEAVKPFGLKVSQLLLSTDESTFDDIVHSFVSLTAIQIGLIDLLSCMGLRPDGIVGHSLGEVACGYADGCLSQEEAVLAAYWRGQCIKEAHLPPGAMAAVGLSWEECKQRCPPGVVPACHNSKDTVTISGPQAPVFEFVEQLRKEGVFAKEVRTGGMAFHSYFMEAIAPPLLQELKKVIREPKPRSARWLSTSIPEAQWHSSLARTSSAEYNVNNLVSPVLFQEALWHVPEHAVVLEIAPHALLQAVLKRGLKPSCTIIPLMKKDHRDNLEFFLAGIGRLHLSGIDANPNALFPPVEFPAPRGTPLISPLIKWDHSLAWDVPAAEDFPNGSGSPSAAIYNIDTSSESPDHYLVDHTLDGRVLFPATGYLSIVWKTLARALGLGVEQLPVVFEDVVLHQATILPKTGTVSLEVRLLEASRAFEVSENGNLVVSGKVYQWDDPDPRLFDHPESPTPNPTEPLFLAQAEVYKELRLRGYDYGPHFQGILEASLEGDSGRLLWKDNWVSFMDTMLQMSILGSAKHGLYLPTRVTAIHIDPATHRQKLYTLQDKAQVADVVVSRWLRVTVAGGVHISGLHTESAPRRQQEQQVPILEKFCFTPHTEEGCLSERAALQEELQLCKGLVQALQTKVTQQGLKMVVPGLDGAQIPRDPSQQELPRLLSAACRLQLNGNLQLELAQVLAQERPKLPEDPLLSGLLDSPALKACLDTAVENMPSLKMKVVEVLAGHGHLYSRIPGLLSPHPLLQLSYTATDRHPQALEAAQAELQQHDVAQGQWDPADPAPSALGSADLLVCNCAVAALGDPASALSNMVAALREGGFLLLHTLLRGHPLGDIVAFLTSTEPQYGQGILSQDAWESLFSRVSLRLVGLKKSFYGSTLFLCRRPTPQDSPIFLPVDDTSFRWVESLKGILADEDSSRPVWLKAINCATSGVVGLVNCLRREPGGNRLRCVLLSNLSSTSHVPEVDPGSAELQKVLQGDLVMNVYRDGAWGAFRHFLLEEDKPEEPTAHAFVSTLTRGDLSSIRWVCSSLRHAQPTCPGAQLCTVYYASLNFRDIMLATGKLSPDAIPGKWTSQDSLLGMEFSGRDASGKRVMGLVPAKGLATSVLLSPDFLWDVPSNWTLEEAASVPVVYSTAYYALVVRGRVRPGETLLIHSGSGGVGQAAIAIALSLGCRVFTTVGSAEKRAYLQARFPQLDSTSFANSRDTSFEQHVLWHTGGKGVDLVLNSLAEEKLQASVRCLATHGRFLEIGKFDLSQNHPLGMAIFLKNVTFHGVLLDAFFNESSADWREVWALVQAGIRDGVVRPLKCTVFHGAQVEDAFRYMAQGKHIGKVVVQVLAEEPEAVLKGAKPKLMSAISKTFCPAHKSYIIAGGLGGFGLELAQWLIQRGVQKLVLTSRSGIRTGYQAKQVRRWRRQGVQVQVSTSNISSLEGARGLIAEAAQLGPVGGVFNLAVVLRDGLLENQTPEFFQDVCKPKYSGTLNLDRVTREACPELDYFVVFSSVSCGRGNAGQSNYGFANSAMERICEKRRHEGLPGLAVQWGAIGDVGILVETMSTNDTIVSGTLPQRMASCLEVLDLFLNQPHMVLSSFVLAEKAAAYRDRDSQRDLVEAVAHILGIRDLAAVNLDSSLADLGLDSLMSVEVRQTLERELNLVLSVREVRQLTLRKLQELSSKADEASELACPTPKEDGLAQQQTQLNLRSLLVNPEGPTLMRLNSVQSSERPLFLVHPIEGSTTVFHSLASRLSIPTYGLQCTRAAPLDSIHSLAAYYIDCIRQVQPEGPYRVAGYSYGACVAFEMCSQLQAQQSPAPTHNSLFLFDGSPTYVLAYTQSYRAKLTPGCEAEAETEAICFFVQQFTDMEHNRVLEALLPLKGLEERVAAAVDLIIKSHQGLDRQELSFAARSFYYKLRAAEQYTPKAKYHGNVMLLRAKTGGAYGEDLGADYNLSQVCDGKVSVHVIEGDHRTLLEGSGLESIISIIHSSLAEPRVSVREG

Compound | IC50
CCC(C)C(=O)Nc1nc(-c2ccc(S(=O)(=O)N(CC)CC)cc2)cs1 (centres undefined) | 296 nM
CCN(CC)S(=O)(=O)c1ccc(-c2csc(NC(=O)C3CCCC3)n2)cc1 | 1180 nM
CCCCC(=O)Nc1nc(-c2ccc(S(=O)(=O)N3CCC(C)CC3)cc2)cs1 | 533 nM
CCN(CC)S(=O)(=O)c1ccc(-c2csc(NC(=O)C3CCCCC3)n2)cc1 | 3140 nM
CCCCC(=O)Nc1nc(-c2ccc(S(=O)(=O)N3CCOCC3)cc2)cs1 | 552 nM
CCC(CC)C(=O)Nc1nc(-c2ccc(S(=O)(=O)N3CCOCC3)cc2)cs1 | 307 nM
CC(=O)Nc1nc(-c2ccc(S(=O)(=O)N3CCOCC3)cc2)cs1 | 12000 nM
O=C(Nc1nc(-c2ccc(S(=O)(=O)N3CCOCC3)cc2)cs1)C1CC1 | 5110 nM
CC(=O)Nc1nc(-c2ccc(S(=O)(=O)N3CCSCC3)cc2)cs1 | > 80000 nM (inactive)
CC(C)CC(=O)Nc1nc(-c2ccc(S(=O)(=O)N3CCOCC3)cc2)cs1 | 6620 nM
O=C(Nc1nc(-c2ccc(S(=O)(=O)N3CCOCC3)cc2)cs1)C1CCCC1 | > 80000 nM (inactive)
CN(C)S(=O)(=O)c1ccc(-c2csc(NC(=O)C3CCC3)n2)cc1 | 1360 nM
CCC(=O)Nc1nc(-c2ccc(S(=O)(=O)N(CC)CC)cc2)cs1 | 3980 nM
CCCCC(=O)Nc1nc(-c2cccc(S(=O)(=O)N3CCOCC3)c2)cs1 | 18100 nM
CCN(CC)S(=O)(=O)c1ccc(-c2csc(NC(=O)C3CC3)n2)cc1 | 2470 nM
O=C(Nc1nc(-c2ccc(S(=O)(=O)N3CCCC3)cc2)cs1)C1CCC1 | 347 nM
CCC(=O)Nc1nc(-c2ccc(S(=O)(=O)N3CCC(C)CC3)cc2)cs1 | > 80000 nM (inactive)
CCC(=O)Nc1nc(-c2ccc(S(=O)(=O)N3CCCC3)cc2)cs1 | 644 nM
CC1CCN(S(=O)(=O)c2ccc(-c3csc(NC(=O)C4CC4)n3)cc2)CC1 | > 80000 nM (inactive)
CCC(C)C(=O)Nc1nc(-c2ccc(S(=O)(=O)N3CCOCC3)cc2)cs1 (centres undefined) | 289 nM

Compound | IC50
O=C(Nc1nc(-c2ccc(S(=O)(=O)N3CCOCC3)cc2)cs1)C1CCCCC1 | > 80000 nM (inactive)
CC(C)(C)OC(=O)Nc1nc(-c2ccc(S(=O)(=O)N3CCOCC3)cc2)cs1 | inactive
CCC(=O)Nc1nc(-c2ccc(S(=O)(=O)N3CCOCC3)cc2)cs1 | 4160 nM
CC(C)C(=O)Nc1nc(-c2ccc(S(=O)(=O)N3CCOCC3)cc2)cs1 | 875 nM
CN(C)S(=O)(=O)c1ccc(-c2csc(NC(=O)C3CC3)n2)cc1 | 1290 nM
CC(C)C(=O)Nc1nc(-c2ccc(S(=O)(=O)N3CCCC3)cc2)cs1 | 295 nM
CCC(=O)Nc1nc(-c2ccc(S(=O)(=O)N(C)C)cc2)cs1 | 1090 nM
CCN(CC)S(=O)(=O)c1ccc(-c2csc(NC(=O)C(C)C)n2)cc1 | 318 nM
O=C(Nc1nc(-c2ccc(S(=O)(=O)N3CCCC3)cc2)cs1)C1CC1 | 658 nM
O=C(Nc1nc(-c2ccc(S(=O)(=O)N3CCCC3)cc2)cs1)C1CCCC1 | 751 nM
CCCCC(=O)Nc1nc(-c2ccc(S(=O)(=O)N(CC)CC)cc2)cs1 | 169 nM
CN(C)S(=O)(=O)c1ccc(-c2csc(NC(=O)C3CCCC3)n2)cc1 | 1500 nM
CC(C)C(=O)Nc1nc(-c2ccc(S(=O)(=O)N(C)C)cc2)cs1 | 559 nM
CCCCC(=O)Nc1nc(-c2ccc(S(=O)(=O)N3CCCC3)cc2)cs1 | 193 nM
CCCCC(=O)Nc1nc(-c2ccc(C(=O)N3CCOCC3)cc2)cs1 | inactive
CCCCC(=O)Nc1nc(-c2ccc(S(=O)(=O)N3CCSCC3)cc2)cs1 | 649 nM
CC1CCN(S(=O)(=O)c2ccc(-c3csc(NC(=O)C(C)C)n3)cc2)CC1 | 643 nM
O=C(Nc1nc(-c2ccc(S(=O)(=O)N3CCOCC3)cc2)cs1)C1CCC1 | 3450 nM
CCN(CC)S(=O)(=O)c1ccc(-c2csc(NC(=O)C3CCC3)n2)cc1 | 966 nM

From PubChem BioAssay AID652165 (Sanford-Burnham Center for Chemical Genomics, 2013)
